As a reminder, the pKi is −log10 of the Ki, conventionally taken in molar units. A lower pKi goes with a large Ki.

The target in experiment [1] is T1, Oxytocin receptor (Rattus norvegicus, UniProt P70536).
T1 sequence (P70536 whole entry): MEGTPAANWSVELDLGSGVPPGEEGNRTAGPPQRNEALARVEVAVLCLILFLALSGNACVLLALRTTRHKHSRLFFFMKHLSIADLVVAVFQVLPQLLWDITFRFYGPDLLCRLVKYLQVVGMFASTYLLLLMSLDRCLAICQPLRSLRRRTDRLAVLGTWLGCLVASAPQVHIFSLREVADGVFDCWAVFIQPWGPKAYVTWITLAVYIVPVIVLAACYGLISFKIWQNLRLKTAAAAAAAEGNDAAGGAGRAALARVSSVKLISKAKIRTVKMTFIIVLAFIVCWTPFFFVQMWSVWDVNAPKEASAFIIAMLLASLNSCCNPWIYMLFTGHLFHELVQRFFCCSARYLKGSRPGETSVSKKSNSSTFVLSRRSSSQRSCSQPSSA
Kind of experiment: Binding affinity was evaluated by measuring the displacement of [3H]-OT (oxytocin) from specific binding sites in uterine tissue obtained from rats. In general terms: In a radioligand displacement assay an active substance lowers the binding of a labelled ligand.

The target in experiment [2] is T2, Oxytocin receptor (Homo sapiens, UniProt P30559).
T2 sequence (P30559 whole entry): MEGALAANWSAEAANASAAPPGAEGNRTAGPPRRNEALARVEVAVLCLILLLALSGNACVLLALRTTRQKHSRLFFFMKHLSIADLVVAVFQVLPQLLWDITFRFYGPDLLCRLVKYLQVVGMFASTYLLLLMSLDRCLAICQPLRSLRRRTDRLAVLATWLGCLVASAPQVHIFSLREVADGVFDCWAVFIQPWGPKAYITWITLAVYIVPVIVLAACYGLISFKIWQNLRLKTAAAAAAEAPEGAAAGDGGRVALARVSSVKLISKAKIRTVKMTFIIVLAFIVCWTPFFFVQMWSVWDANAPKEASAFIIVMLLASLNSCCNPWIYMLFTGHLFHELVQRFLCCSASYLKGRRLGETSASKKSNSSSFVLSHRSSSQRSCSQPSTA
As to the kind of experiment: Binding affinity was evaluated by measuring the displacement of [3H]OT (oxytocin) from specific binding sites in uterine tissue obtained from human.

The target in experiment [3] is T3, Vasopressin V2 receptor (Rattus norvegicus, UniProt Q00788). As to the kind of experiment: Binding affinity was evaluated by measuring the displacement of [3H]-AVP (arginine vasopressin) from specific binding sites in kidney medulla obtained from rats. The format is tissue-based.
Experiment [4] addresses T4, Vasopressin V1a receptor (Rattus norvegicus, UniProt P30560). As to the kind of experiment: Binding affinity was evaluated by measuring the displacement of [3H]AVP (arginine vasopressin) from specific binding sites in rat liver.
For experiment [5], the target named is T5, Vasopressin V1a receptor (Homo sapiens, UniProt P37288). As to the kind of experiment: Binding affinity was evaluated by measuring the displacement of [3H]AVP (arginine vasopressin) from specific binding sites in human platelets.
The target in experiment [6] is T2, Oxytocin receptor. As to the kind of experiment: Binding affinity was evaluated by measuring the displacement of [3H]-OT (oxytocin) from specific binding sites in uterine tissue obtained from human.
Experiment [7] concerns the target T5, Vasopressin V1a receptor. As to the kind of experiment: Binding affinity was evaluated by measuring the displacement of [3H]AVP (arginine vasopressin) from specific binding sites in human platelets.
Experiment [8] deals with T4, Vasopressin V1a receptor. Kind of experiment: Binding affinity was evaluated by measuring the displacement of [3H]AVP (arginine vasopressin) from specific binding sites in rat liver.
The target of experiment [9] is T3, Vasopressin V2 receptor. As to the kind of experiment: Binding affinity was evaluated by measuring the displacement of [3H]AVP (arginine vasopressin) from specific binding sites in kidney medulla obtained from rats. The format is tissue-based.
For experiment [10], the target named is T6, Vasopressin V2 receptor (Homo sapiens, UniProt P30518). Kind of experiment: Binding affinity was evaluated by measuring the displacement of [3H]-AVP (arginine vasopressin) from specific binding sites in kidney medulla obtained from early postmortem human donors. The format is tissue-based.
Experiment [11] concerns the target T6, Vasopressin V2 receptor. As to the kind of experiment: Binding affinity was evaluated by measuring the displacement of [3H]AVP (arginine vasopressin) from specific binding sites in kidney medulla obtained from early postmortem human donors. Format: tissue-based.

pKi: −log10 of the molar value.

T3 sequence (Q00788 whole entry): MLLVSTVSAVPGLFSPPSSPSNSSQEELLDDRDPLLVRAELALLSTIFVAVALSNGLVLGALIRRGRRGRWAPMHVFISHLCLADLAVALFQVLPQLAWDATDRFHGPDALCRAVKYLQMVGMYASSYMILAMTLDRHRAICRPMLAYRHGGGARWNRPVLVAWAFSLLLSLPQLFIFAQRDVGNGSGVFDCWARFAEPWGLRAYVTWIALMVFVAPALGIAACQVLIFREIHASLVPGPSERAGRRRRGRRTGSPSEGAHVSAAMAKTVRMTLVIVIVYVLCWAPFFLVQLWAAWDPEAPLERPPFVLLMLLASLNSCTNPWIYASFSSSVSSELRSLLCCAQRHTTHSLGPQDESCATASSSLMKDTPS
T5 sequence (P37288 whole entry): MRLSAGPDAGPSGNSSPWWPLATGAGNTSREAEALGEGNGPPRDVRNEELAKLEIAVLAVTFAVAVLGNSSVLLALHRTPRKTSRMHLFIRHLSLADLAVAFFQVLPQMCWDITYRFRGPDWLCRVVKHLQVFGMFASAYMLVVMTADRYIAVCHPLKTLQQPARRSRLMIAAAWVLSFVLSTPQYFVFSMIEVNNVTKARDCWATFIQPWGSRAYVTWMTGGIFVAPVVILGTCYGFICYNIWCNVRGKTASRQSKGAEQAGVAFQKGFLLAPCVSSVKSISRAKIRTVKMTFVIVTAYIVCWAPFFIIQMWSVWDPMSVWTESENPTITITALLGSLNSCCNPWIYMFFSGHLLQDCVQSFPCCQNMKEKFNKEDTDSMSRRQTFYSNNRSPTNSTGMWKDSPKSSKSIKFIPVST
T4 sequence (P30560 whole entry): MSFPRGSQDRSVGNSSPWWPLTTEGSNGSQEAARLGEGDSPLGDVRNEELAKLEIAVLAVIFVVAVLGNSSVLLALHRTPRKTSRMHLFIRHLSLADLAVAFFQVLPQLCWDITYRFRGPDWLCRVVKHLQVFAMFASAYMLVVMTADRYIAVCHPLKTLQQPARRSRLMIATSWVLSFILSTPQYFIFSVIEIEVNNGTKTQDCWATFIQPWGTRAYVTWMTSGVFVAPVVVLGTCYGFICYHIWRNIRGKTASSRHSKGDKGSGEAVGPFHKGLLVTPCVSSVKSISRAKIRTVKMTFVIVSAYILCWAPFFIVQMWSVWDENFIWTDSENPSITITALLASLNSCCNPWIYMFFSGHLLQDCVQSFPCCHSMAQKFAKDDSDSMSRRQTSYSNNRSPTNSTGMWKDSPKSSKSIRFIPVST
T6 sequence (P30518 whole entry): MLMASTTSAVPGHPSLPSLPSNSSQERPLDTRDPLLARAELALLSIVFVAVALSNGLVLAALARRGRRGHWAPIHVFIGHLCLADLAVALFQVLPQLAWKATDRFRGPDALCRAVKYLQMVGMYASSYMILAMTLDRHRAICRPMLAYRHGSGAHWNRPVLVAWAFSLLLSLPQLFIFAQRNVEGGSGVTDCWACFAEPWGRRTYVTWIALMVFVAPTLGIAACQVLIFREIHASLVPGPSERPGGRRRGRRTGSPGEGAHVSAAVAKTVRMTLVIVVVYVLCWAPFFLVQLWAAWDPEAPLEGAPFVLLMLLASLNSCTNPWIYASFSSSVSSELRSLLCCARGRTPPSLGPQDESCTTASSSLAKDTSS

For `CC(=O)N1CCCC(COc2ccc(C(=O)N3CCC(N4C(=O)OCc5ccccc54)CC3)cc2)C1` (stereo not given), the pKi in experiment [1] was 6.47; in [2], 6.70; in experiment [3] it was 4.96; in [4] it was 7.62; in [5] it was 4.42.
Regarding `CC(=O)NCCCOc1ccc(C(=O)N2CCC(N3C(=O)OCc4ccccc43)CC2)cc1`, the negative-log Ki (pKi) in experiment [1] is 6.70; in experiment [6], 6.89; in [7] it was 4.44; in experiment [8], 7.51; in [9], 4.46.
Turning to `CC(=O)NCCCOc1ccc(C(=O)N2CCC(N3C(=O)NCc4ccccc43)CC2)cc1`, the negative logarithm of the Ki (pKi) is 5.62 in [1]; 5.68 in experiment [6]; 4.21 in [7]; below 6.00 in experiment [8]; below 5.52 in [9].
With `COc1cc(OC2CCN(C(C)=O)CC2)ccc1C(=O)N1CCC(N2C(=O)OCc3ccccc32)CC1`, the negative logarithm of the Ki (pKi) in experiment [2] is 8.34; in experiment [3], below 4.52; in experiment [4], 8.43; in experiment [5] it was 5.49; in experiment [10], 4.43.
Consider `CC(=O)NCCCOc1ccc(C(=O)N2CCC(N3C(=O)CCc4ccccc43)CC2)cc1`, for which the pKi in experiment [1] was 6.64; in experiment [6], 6.77; in [11] it was below 4.09; in [7] it was 4.28; in [8], 7.49; in experiment [9], below 4.52.
`CC(=O)N1CCCCC1CCOc1ccc(C(=O)N2CCC(N3C(=O)OCc4ccccc43)CC2)cc1` (stereo not given): the negative-log Ki (pKi) in experiment [2] is 6.82; in [3] it was 4.96; in experiment [4], 7.82; in experiment [5], 4.66.
`CC(=O)N1CCC(Oc2ccc(C(=O)N3CCC(N4C(=O)OCc5ccccc54)CC3)cc2)CC1`: the negative logarithm of the Ki (pKi) in experiment [1] was 7.16; in [2], 7.62; in experiment [3] it was 4.46; in experiment [4], 8.25; in [5], 4.92.

(Values after ChEMBL document CHEMBL1128191, “1-(1-[4-[(N-acetyl-4-piperidinyl)oxy]-2-methoxybenzoyl]piperidin-4-yl)-4H-3,1-benzoxazin-2(1H)-one (L-371,257): a new, orally bioavailable, non-peptide oxytocin antagonist” (J Med Chem, 1995).)
